Patent US6740642B2, “Macrolides with antibacterial activity” (BAsilea Parmaceutica AG, priority 2000, dated 2004)
In brackets after ≈: the same amount, converted by molar mass.

How the values were obtained:
St. pneumoniae SL199T = assay: MIC, standard microdilution; type: cell-based, Streptococcus pneumoniae; conditions: Streptococcus pneumoniae, read-out: minimum inhibitory concentration (MIC)
Method in brief: (§1)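 Antibacterial activity was measured by the standard microdilution technique. The method followed the NCCLS dilution standard for aerobically growing bacteria (M7-A4).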

St. pneumoniae 1/4 = assay: MIC, standard microdilution; type: cell-based, Streptococcus pneumoniae; conditions: Streptococcus pneumoniae, read-out: minimum inhibitory concentration (MIC)
Method in brief: as §1

St. pneumoniae 12288 = assay: MIC, standard microdilution; type: cell-based, Streptococcus pneumoniae; conditions: Streptococcus pneumoniae, read-out: minimum inhibitory concentration (MIC)
Method in brief: as §1

St. pneumoniae 1/1 = assay: MIC, standard microdilution; type: cell-based, Streptococcus pneumoniae; conditions: Streptococcus pneumoniae, read-out: minimum inhibitory concentration (MIC)
Method in brief: as §1

[1] = tested on: P. aeruginosa ATCC27853 (+Ery. 32 μg/ml); assay: MIC, standard microdilution; type: cell-based
Method in brief: as §1

E. coli ATCC25922 = assay: MIC, standard microdilution; type: cell-based; conditions: Escherichia coli, read-out: minimum inhibitory concentration (MIC)
Method in brief: as §1

H. influenzae 12214 = assay: MIC, agar dilution, HTM medium; type: cell-based, Haemophilus influenzae; conditions: Haemophilus influenzae, read-out: MIC
Text: (§2) The biological activities of compounds of the present invention against Haemophilus influenzae have been determined by standard agar dilution method using HTM medium (National Committee for Clinical Laboratory Standards. 1997. Methods for dilution antimicrobial susceptibility tests for bacteria that grow aerobically, 4th edition. Approved standard M7-A4. National Committee for Clinical Laboratory Standards, Wayne, Pa.).

H. influenzae 4139 = assay: MIC, agar dilution, HTM medium; type: cell-based, Haemophilus influenzae; conditions: Haemophilus influenzae, read-out: MIC
Text: as §2

H. influenzae ATCC 49247 = assay: MIC, agar dilution, HTM medium; type: cell-based, Haemophilus influenzae; conditions: Haemophilus influenzae, ATCC49247, read-out: MIC
Text: as §2

H. influenzae H28 HEL = assay: MIC, agar dilution, HTM medium; type: cell-based, Haemophilus influenzae; conditions: Haemophilus influenzae, H28HEL, read-out: MIC
Text: as §2

H. influenzae H13 LAH = assay: MIC, agar dilution, HTM medium; type: cell-based, Haemophilus influenzae; conditions: Haemophilus influenzae, H13LAH, read-out: MIC
Text: as §2

H. influenzae QK 12/87 = assay: MIC, agar dilution, HTM medium; type: cell-based, Haemophilus influenzae; conditions: Haemophilus influenzae, QK12/87, read-out: MIC
Text: as §2

H. influenzae Rd KW20 = assay: MIC, agar dilution, HTM medium; type: cell-based, Haemophilus influenzae; conditions: Haemophilus influenzae, RDKW20, read-out: MIC
Text: as §2

H. influenzae 2947 = assay: MIC, agar dilution, HTM medium; type: cell-based, Haemophilus influenzae; conditions: Haemophilus influenzae, read-out: MIC
Text: as §2

H. influenzae B 1501 = assay: MIC, agar dilution, HTM medium; type: cell-based, Haemophilus influenzae; conditions: Haemophilus influenzae, B1501, read-out: MIC
Text: as §2

H. influenzae 23145 = assay: MIC, agar dilution, HTM medium; type: cell-based, Haemophilus influenzae; conditions: Haemophilus influenzae, read-out: MIC
Text: as §2

H. influenzae H36 ODL = assay: MIC, agar dilution, HTM medium; type: cell-based, Haemophilus influenzae; conditions: Haemophilus influenzae, H36ODL, read-out: MIC
Text: as §2

H. influenzae 3457 = assay: MIC, agar dilution, HTM medium; type: cell-based, Haemophilus influenzae; conditions: Haemophilus influenzae, read-out: MIC
Text: as §2

H. influenzae Christy = assay: MIC, agar dilution, HTM medium; type: cell-based, Haemophilus influenzae; conditions: Haemophilus influenzae, read-out: MIC
Text: as §2

H. influenzae 3640 = assay: MIC, agar dilution, HTM medium; type: cell-based, Haemophilus influenzae; conditions: Haemophilus influenzae, read-out: MIC
Text: as §2

H. influenzae 3201 = assay: MIC, agar dilution, HTM medium; type: cell-based, Haemophilus influenzae; conditions: Haemophilus influenzae, read-out: MIC
Text: as §2

H. influenzae 11 = assay: MIC, agar dilution, HTM medium; type: cell-based, Haemophilus influenzae; conditions: Haemophilus influenzae, read-out: MIC
Text: as §2

H. influenzae 1 = assay: MIC, agar dilution, HTM medium; type: cell-based, Haemophilus influenzae; conditions: Haemophilus influenzae, read-out: MIC
Text: as §2

H. influenzae ATCC 9334 = assay: MIC, agar dilution, HTM medium; type: cell-based, Haemophilus influenzae; conditions: Haemophilus influenzae, ATCC9334, read-out: MIC
Text: as §2

H. influenzae H20 HDL = assay: MIC, agar dilution, HTM medium; type: cell-based, Haemophilus influenzae; conditions: Haemophilus influenzae, H20HDL, read-out: MIC
Text: as §2

H. influenzae QK 50 = assay: MIC, agar dilution, HTM medium; type: cell-based, Haemophilus influenzae; conditions: Haemophilus influenzae, QK50, read-out: MIC
Text: as §2

H. influenzae 23369 = assay: MIC, agar dilution, HTM medium; type: cell-based, Haemophilus influenzae; conditions: Haemophilus influenzae, read-out: MIC
Text: as §2

S. aureus 745 = assay: MIC, standard microdilution; type: cell-based, Staphylococcus aureus; conditions: Staphylococcus aureus, read-out: minimum inhibitory concentration (MIC)
Method in brief: as §1

S. aureus ATCC29213 = assay: MIC, standard microdilution; type: cell-based, Staphylococcus aureus; conditions: Staphylococcus aureus, read-out: minimum inhibitory concentration (MIC)
Method in brief: as §1

S. aureus 1086 = assay: MIC, standard microdilution; type: cell-based, Staphylococcus aureus; conditions: Staphylococcus aureus, read-out: minimum inhibitory concentration (MIC)
Method in brief: as §1

Structure (SMILES)	MIC (St. pneumoniae SL199T)	MIC (St. pneumoniae 1/4)	MIC (St. pneumoniae 12288)	MIC (St. pneumoniae 1/1)	minimum inhibitory concentration (MIC) [1]	MIC (E. coli ATCC25922)	MIC (H. influenzae 12214)	MIC (H. influenzae 4139)	MIC (H. influenzae ATCC 49247)	MIC (H. influenzae H28 HEL)	MIC (H. influenzae H13 LAH)	MIC (H. influenzae QK 12/87)	MIC (H. influenzae Rd KW20)	MIC (H. influenzae 2947)	MIC (H. influenzae B 1501)	MIC (H. influenzae 23145)	MIC (H. influenzae H36 ODL)	MIC (H. influenzae 3457)	MIC (H. influenzae Christy)	MIC (H. influenzae 3640)	other results
CC[C@H]1OC(=O)[C@H](C)[C@@H](O[C@H]2C[C@@](C)(OC)[C@@H](O)[C@H](C)O2)[C@H](C)[C@@H](O[C@@H]2O[C@H](C)C[C@H](N(C)C)[C@H]2O)[C@](C)(O)C[C@@H](C)C(=O)[C@H](C)[C@@H](O)[C@]1(C)O [Erythromycin (1), erythromycin A]	> 32 µg/mL	32 µg/mL (≈ 43.6 µM)	> 32 µg/mL	≤ 0.12 µg/mL	>16 µg/mL	> 16 µg/mL	4 µg/mL (≈ 5.45 µM)	1 µg/mL (≈ 1.36 µM)	4 µg/mL (≈ 5.45 µM)	2 µg/mL (≈ 2.73 µM)	4 µg/mL (≈ 5.45 µM)	2 µg/mL (≈ 2.73 µM)	4 µg/mL (≈ 5.45 µM)	4 µg/mL (≈ 5.45 µM)	4 µg/mL (≈ 5.45 µM)	4 µg/mL (≈ 5.45 µM)	4 µg/mL (≈ 5.45 µM)	0.5 µg/mL (≈ 0.681 µM)	4 µg/mL (≈ 5.45 µM)	2 µg/mL (≈ 2.73 µM)	MIC (H. influenzae 3201): 4 µg/mL (≈ 5.45 µM); MIC (H. influenzae 11): 4 µg/mL (≈ 5.45 µM); MIC (H. influenzae 1): 4 µg/mL (≈ 5.45 µM); MIC (H. influenzae ATCC 9334): 4 µg/mL (≈ 5.45 µM); MIC (H. influenzae H20 HDL): 2 µg/mL (≈ 2.73 µM); MIC (H. influenzae QK 50): 4 µg/mL (≈ 5.45 µM); MIC (H. influenzae 23369): 4 µg/mL (≈ 5.45 µM); MIC (S. aureus 745): > 64 µg/mL; MIC (S. aureus ATCC29213): 0.5 µg/mL (≈ 0.681 µM); MIC (S. aureus 1086): > 32 µg/mL
CC[C@H]1OC(=O)[C@H](C)C(=O)[C@H](C)[C@@H](O[C@@H]2O[C@H](C)C[C@H](N(C)C)[C@H]2O)[C@](C)(OC)C[C@@H](C)C(=O)[C@H](C)[C@H]2N(CCCCn3cnc(-c4cccnc4)c3)C(=O)O[C@]12C [Telithromycin (4), telithromycin]	≤ 0.12 µg/mL	≤ 0.12 µg/mL	0.25 µg/mL (≈ 0.308 µM)	≤ 0.12 µg/mL	>16 µg/mL	16 µg/mL (≈ 19.7 µM)	4 µg/mL (≈ 4.93 µM)	2 µg/mL (≈ 2.46 µM)	4 µg/mL (≈ 4.93 µM)	2 µg/mL (≈ 2.46 µM)	2 µg/mL (≈ 2.46 µM)	1 µg/mL (≈ 1.23 µM)	4 µg/mL (≈ 4.93 µM)	4 µg/mL (≈ 4.93 µM)	2 µg/mL (≈ 2.46 µM)	4 µg/mL (≈ 4.93 µM)	4 µg/mL (≈ 4.93 µM)	0.25 µg/mL (≈ 0.308 µM)	4 µg/mL (≈ 4.93 µM)	2 µg/mL (≈ 2.46 µM)	MIC (H. influenzae 3201): 4 µg/mL (≈ 4.93 µM); MIC (H. influenzae 11): 4 µg/mL (≈ 4.93 µM); MIC (H. influenzae 1): 4 µg/mL (≈ 4.93 µM); MIC (H. influenzae ATCC 9334): 2 µg/mL (≈ 2.46 µM); MIC (H. influenzae H20 HDL): 2 µg/mL (≈ 2.46 µM); MIC (H. influenzae QK 50): 2 µg/mL (≈ 2.46 µM); MIC (H. influenzae 23369): 4 µg/mL (≈ 4.93 µM); MIC (S. aureus 745): > 64 µg/mL; MIC (S. aureus ATCC29213): ≤ 0.12 µg/mL; MIC (S. aureus 1086): ≤ 0.12 µg/mL
